Test system: E. coli (ATCC 25922)
Assay: AATCC Test Method 100-2012 antibacterial activity of the treated textile, after 25 washes and 12 abrasion cycles, contact time 60 minutes
Format: cell-based
Conditions: for Performance Test-Log reduction of antimicrobial performance: pad process, 2 min
Protocol: The antibacterial activity of the textile was tested in accordance with AATCC Test Method 100-2012. Prior to the test, the fabric was cut into coupons of 2×4 inches and washed separately 25 times, and exposed to 12 abrasion cycles, as per US EPA protocol 90072PA4 (described further below). The tests were made against E. coli (ATCC 25922). Contact time was 60 minutes, after inoculating with 10^8 CFU per coupon.

With Silver the “Performance Test-Log reduction of antimicrobial performance” value (shortened to “Performance Test-Log reduction”) (single agent 5 gm/lit, curing 180° C.) was 1.11 Log, the “Performance Test-Log reduction” value (single agent 10 gm/lit, curing 120° C.) was 0.37 Log and the “Performance Test-Log reduction” value (single agent 10 gm/lit, curing 140° C.) was 0.48 Log. For the same substance, the “Performance Test-Log reduction” value (single agent 10 gm/lit, curing 150° C.) was 0.58 Log, the “Performance Test-Log reduction” value (single agent 10 gm/lit, curing 160° C.) was 0.95 Log and the “Performance Test-Log reduction” value (single agent 10 gm/lit, curing 180° C.) was 2.11 Log. The “Log reduction of antimicrobial performance” value (pure cotton fabric, exhaust 80° C., 60 min, dosage 0.1% o.w.f) was 0.55 Log, the “Log reduction of antimicrobial performance” value (pure cotton fabric, exhaust 80° C., 60 min, dosage 0.2% o.w.f) was 1.35 Log and the “Log reduction of antimicrobial performance” value (pure cotton fabric, exhaust 80° C., 60 min, dosage 0.5% o.w.f) was 1.67 Log. For the same substance, the “Log reduction of antimicrobial performance” value (pure cotton fabric, exhaust 80° C., 60 min, dosage 0.8% o.w.f) was 1.84 Log, the “Log reduction of antimicrobial performance” value (pure cotton fabric, exhaust 80° C., 60 min, dosage 1.0% o.w.f) was 2.87 Log and the “Log reduction of antimicrobial performance” value (pure cotton, exhaust 80° C., 1% o.w.f, 60 min, curing 180° C., curing dwell time 0.5 min) was 0.4 Log. For the same substance, the “Log reduction of antimicrobial performance” value (pure cotton, exhaust 80° C., 1% o.w.f, 60 min, curing 180° C., curing dwell time 1.0 min) was 0.6 Log, the “Log reduction of antimicrobial performance” value (pure cotton, exhaust 80° C., 1% o.w.f, 60 min, curing 180° C., curing dwell time 1.5 min) was 1.4 Log and the “Log reduction of antimicrobial performance” value (pure cotton, exhaust 80° C., 1% o.w.f, 60 min, curing 180° C., curing dwell time 2.0 min) was 2.9 Log. For the same substance, the “Log reduction of antimicrobial performance” value (pure cotton, exhaust 80° C., 1% o.w.f, 60 min, curing 180° C., curing dwell time 2.5 min) was 2.2 Log, the “Log reduction of antimicrobial performance” value (pure cotton, exhaust 80° C., 1% o.w.f, 60 min, curing 180° C., curing dwell time 3.0 min) was 1.2 Log and the “Log reduction of antimicrobial performance” value (pure polyester fabric, exhaust 80° C., 60 min, curing 180° C., curing dwell time 0.5 min) was 0.5 Log. For the same substance, the “Log reduction of antimicrobial performance” value (pure polyester fabric, exhaust 80° C., 60 min, curing 180° C., curing dwell time 1.0 min) was 0.9 Log, the “Log reduction of antimicrobial performance” value (pure polyester fabric, exhaust 80° C., 60 min, curing 180° C., curing dwell time 1.5 min) was 1.4 Log and the “Log reduction of antimicrobial performance” value (pure polyester fabric, exhaust 80° C., 60 min, curing 180° C., curing dwell time 2.0 min) was 2.68 Log. For the same substance, the “Log reduction of antimicrobial performance” value (pure polyester fabric, exhaust 80° C., 60 min, curing 180° C., curing dwell time 2.5 min) was 2.21 Log, the “Log reduction of antimicrobial performance” value (pure polyester fabric, exhaust 80° C., 60 min, curing 180° C., curing dwell time 3.0 min) was 1.2 Log and the “Log reduction of antimicrobial performance” value (pure polyester fabric, exhaust 80° C., 60 min, dosage 0.1% o.w.f) was 0.55 Log. The “Log reduction of antimicrobial performance” value (pure polyester fabric, exhaust 80° C., 60 min, dosage 0.2% o.w.f) was 1.43 Log, the “Log reduction of antimicrobial performance” value (pure polyester fabric, exhaust 80° C., 60 min, dosage 0.5% o.w.f) was 1.78 Log and the “Log reduction of antimicrobial performance” value (pure polyester fabric, exhaust 80° C., 60 min, dosage 0.8% o.w.f) was 1.83 Log. The “Log reduction of antimicrobial performance” value (pure polyester fabric, exhaust 80° C., 60 min, dosage 1.0% o.w.f) was 2.67 Log, the “Log reduction of antimicrobial performance” value (solution dosage 0.10% o.w.f, exhaust temperature 40° C., process time 60 min) was 0 Log and the “Log reduction of antimicrobial performance” value (solution dosage 0.10% o.w.f, exhaust temperature 60° C., process time 60 min) was 0 Log. The “Log reduction of antimicrobial performance” value (solution dosage 0.10% o.w.f, exhaust temperature 65° C., process time 60 min) was 0 Log, the “Log reduction of antimicrobial performance” value (solution dosage 0.10% o.w.f, exhaust temperature 70° C., process time 60 min) was 0 Log and the “Log reduction of antimicrobial performance” value (solution dosage 0.10% o.w.f, exhaust temperature 75° C., process time 60 min) was 0.21 Log. The “Log reduction of antimicrobial performance” value (solution dosage 0.10% o.w.f, exhaust temperature 80° C., process time 60 min) was 0.53 Log, the “Log reduction of antimicrobial performance” value (solution dosage 0.10% o.w.f, exhaust temperature 85° C., process time 60 min) was 0.67 Log and the “Log reduction of antimicrobial performance” value (solution dosage 0.10% o.w.f, exhaust temperature 90° C., process time 60 min) was 0.68 Log. The “Log reduction of antimicrobial performance” value (solution dosage 0.10% o.w.f, exhaust temperature 95° C., process time 60 min) was 0.68 Log, the “Log reduction of antimicrobial performance” value (solution dosage 0.20% o.w.f, exhaust temperature 40° C., process time 60 min) was 0 Log and the “Log reduction of antimicrobial performance” value (solution dosage 0.20% o.w.f, exhaust temperature 60° C., process time 60 min) was 0.11 Log. For the same substance, the “Log reduction of antimicrobial performance” value (solution dosage 0.20% o.w.f, exhaust temperature 65° C., process time 60 min) was 0.12 Log, the “Log reduction of antimicrobial performance” value (solution dosage 0.20% o.w.f, exhaust temperature 70° C., process time 60 min) was 0.17 Log and the “Log reduction of antimicrobial performance” value (solution dosage 0.20% o.w.f, exhaust temperature 75° C., process time 60 min) was 0.87 Log. The “Log reduction of antimicrobial performance” value (solution dosage 0.20% o.w.f, exhaust temperature 80° C., process time 60 min) was 1.32 Log, the “Log reduction of antimicrobial performance” value (solution dosage 0.20% o.w.f, exhaust temperature 85° C., process time 60 min) was 1.45 Log and the “Log reduction of antimicrobial performance” value (solution dosage 0.20% o.w.f, exhaust temperature 90° C., process time 60 min) was 1.46 Log. The “Log reduction of antimicrobial performance” value (solution dosage 0.20% o.w.f, exhaust temperature 95° C., process time 60 min) was 1.46 Log, the “Log reduction of antimicrobial performance” value (solution dosage 0.50% o.w.f, exhaust temperature 40° C., process time 60 min) was 0 Log and the “Log reduction of antimicrobial performance” value (solution dosage 0.50% o.w.f, exhaust temperature 60° C., process time 60 min) was 0.23 Log. The “Log reduction of antimicrobial performance” value (solution dosage 0.50% o.w.f, exhaust temperature 65° C., process time 60 min) was 0.13 Log, the “Log reduction of antimicrobial performance” value (solution dosage 0.50% o.w.f, exhaust temperature 70° C., process time 60 min) was 0.18 Log and the “Log reduction of antimicrobial performance” value (solution dosage 0.50% o.w.f, exhaust temperature 75° C., process time 60 min) was 1.05 Log. The “Log reduction of antimicrobial performance” value (solution dosage 0.50% o.w.f, exhaust temperature 80° C., process time 60 min) was 1.56 Log, the “Log reduction of antimicrobial performance” value (solution dosage 0.50% o.w.f, exhaust temperature 85° C., process time 60 min) was 1.76 Log and the “Log reduction of antimicrobial performance” value (solution dosage 0.50% o.w.f, exhaust temperature 90° C., process time 60 min) was 1.78 Log. The “Log reduction of antimicrobial performance” value (solution dosage 0.50% o.w.f, exhaust temperature 95° C., process time 60 min) was 1.78 Log, the “Log reduction of antimicrobial performance” value (solution dosage 0.80% o.w.f, exhaust temperature 40° C., process time 60 min) was 0 Log and the “Log reduction of antimicrobial performance” value (solution dosage 0.80% o.w.f, exhaust temperature 60° C., process time 60 min) was 0.36 Log. The “Log reduction of antimicrobial performance” value (solution dosage 0.80% o.w.f, exhaust temperature 65° C., process time 60 min) was 0.37 Log, the “Log reduction of antimicrobial performance” value (solution dosage 0.80% o.w.f, exhaust temperature 70° C., process time 60 min) was 0.42 Log and the “Log reduction of antimicrobial performance” value (solution dosage 0.80% o.w.f, exhaust temperature 75° C., process time 60 min) was 1.13 Log. For the same substance, the “Log reduction of antimicrobial performance” value (solution dosage 0.80% o.w.f, exhaust temperature 80° C., process time 60 min) was 1.84 Log, the “Log reduction of antimicrobial performance” value (solution dosage 0.80% o.w.f, exhaust temperature 85° C., process time 60 min) was 1.94 Log and the “Log reduction of antimicrobial performance” value (solution dosage 0.80% o.w.f, exhaust temperature 90° C., process time 60 min) was 1.95 Log. For the same substance, the “Log reduction of antimicrobial performance” value (solution dosage 0.80% o.w.f, exhaust temperature 95° C., process time 60 min) was 1.95 Log, the “Log reduction of antimicrobial performance” value (solution dosage 1.00% o.w.f, exhaust temperature 40° C., process time 60 min) was 0 Log and the “Log reduction of antimicrobial performance” value (solution dosage 1.00% o.w.f, exhaust temperature 60° C., process time 60 min) was 0.41 Log. The “Log reduction of antimicrobial performance” value (solution dosage 1.00% o.w.f, exhaust temperature 65° C., process time 60 min) was 0.42 Log, the “Log reduction of antimicrobial performance” value (solution dosage 1.00% o.w.f, exhaust temperature 70° C., process time 60 min) was 0.52 Log and the “Log reduction of antimicrobial performance” value (solution dosage 1.00% o.w.f, exhaust temperature 75° C., process time 60 min) was 1.23 Log. For the same substance, the “Log reduction of antimicrobial performance” value (solution dosage 1.00% o.w.f, exhaust temperature 80° C., process time 60 min) was 2.78 Log, the “Log reduction of antimicrobial performance” value (solution dosage 1.00% o.w.f, exhaust temperature 85° C., process time 60 min) was 2.85 Log and the “Log reduction of antimicrobial performance” value (solution dosage 1.00% o.w.f, exhaust temperature 90° C., process time 60 min) was 2.86 Log. For the same substance, the “Log reduction of antimicrobial performance” value (solution dosage 1.00% o.w.f, exhaust temperature 95° C., process time 60 min) was 2.86 Log.
